Source: BindingDB's records for doi:10.1016/j.chembiol.2004.12.010 (National Institutes of Health, 2005)
Several values for one entry are separate records, joined by “and”; a condition that tells them apart may be missing. Equal values may be shown once.

Tests used:
Experiment in all cases: Binding Assay
Adenosine receptor A1 = target: T1, Adenosine receptor A1 (Homo sapiens, UniProt P30542)
T1 sequence (P30542 whole entry): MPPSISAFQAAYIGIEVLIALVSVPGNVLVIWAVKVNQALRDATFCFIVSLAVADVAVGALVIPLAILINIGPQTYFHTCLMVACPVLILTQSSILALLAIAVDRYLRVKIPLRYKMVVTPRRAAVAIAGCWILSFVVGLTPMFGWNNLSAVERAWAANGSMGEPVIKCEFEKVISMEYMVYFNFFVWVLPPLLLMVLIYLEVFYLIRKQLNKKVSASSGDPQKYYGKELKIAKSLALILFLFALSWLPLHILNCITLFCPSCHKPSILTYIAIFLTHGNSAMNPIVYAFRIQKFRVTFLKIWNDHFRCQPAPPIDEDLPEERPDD
Text: (§1) Binding affinity of ligand at human adenosine receptors expressed in CHO cell.

Adenosine receptor A2a [1] = target: T2, Adenosine receptor A2a (Homo sapiens, UniProt P29274)
Text: as §1

Adenosine receptor A3 = target: T3, Adenosine receptor A3 (Homo sapiens, UniProt P0DMS8)
T3 sequence (P0DMS8 whole entry): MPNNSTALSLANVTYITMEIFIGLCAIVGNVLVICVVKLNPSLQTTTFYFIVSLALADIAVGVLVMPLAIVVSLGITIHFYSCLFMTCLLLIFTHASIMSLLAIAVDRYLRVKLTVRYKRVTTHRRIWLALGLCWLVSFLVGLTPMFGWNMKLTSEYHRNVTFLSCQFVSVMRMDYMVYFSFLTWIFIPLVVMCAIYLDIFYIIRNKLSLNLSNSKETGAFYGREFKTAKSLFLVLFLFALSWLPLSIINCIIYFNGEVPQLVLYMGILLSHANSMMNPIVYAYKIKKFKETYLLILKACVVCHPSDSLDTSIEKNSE
Text: as §1

Adenosine receptor A2b = target: T4, Adenosine receptor A2b (Homo sapiens, UniProt P29275)
T4 sequence (P29275 whole entry): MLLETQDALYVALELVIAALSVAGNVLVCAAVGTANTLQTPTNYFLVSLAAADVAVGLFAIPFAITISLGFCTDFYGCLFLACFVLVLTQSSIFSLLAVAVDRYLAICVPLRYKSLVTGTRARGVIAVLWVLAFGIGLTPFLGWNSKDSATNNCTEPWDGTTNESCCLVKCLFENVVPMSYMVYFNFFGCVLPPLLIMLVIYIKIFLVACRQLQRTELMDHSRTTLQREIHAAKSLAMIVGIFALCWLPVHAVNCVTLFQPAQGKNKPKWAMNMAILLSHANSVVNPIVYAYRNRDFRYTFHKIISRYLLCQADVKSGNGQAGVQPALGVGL
Text: as §1

Adenosine receptor A2a [2] = target: T2, Adenosine receptor A2a; conditions: pH 7.4; 25 °C
Text: Binding affinity of ligand at WT and mutant human A2A ARs expressed in COS7 cell.

T2 sequence (P29274 whole entry): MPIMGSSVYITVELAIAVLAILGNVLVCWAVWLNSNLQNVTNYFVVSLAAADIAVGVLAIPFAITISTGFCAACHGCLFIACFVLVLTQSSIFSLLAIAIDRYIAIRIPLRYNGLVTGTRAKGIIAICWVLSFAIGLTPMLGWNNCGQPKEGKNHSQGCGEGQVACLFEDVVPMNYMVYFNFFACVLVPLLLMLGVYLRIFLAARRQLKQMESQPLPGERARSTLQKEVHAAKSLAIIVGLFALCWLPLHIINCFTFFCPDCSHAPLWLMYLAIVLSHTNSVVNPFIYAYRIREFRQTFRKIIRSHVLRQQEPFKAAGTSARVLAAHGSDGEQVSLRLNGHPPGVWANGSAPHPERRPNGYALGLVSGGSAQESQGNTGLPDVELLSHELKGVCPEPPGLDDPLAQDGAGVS

| Structure (SMILES) | Ki (Adenosine receptor A1) | Ki (Adenosine receptor A2a [1]) | Ki (Adenosine receptor A3) | EC50 (Adenosine receptor A2b) | Ki (Adenosine receptor A2a [2]) |
| --- | --- | --- | --- | --- | --- |
| NNC(=O)[C@H]1O[C@@H](n2cnc3c(N)ncnc32)[C@H](O)[C@@H]1O | 0.171 µM | 2.23 µM | 0.378 µM | 12 µM | – |
| CCNC(=O)[C@H]1O[C@@H](n2cnc3c(N=C(N)N)ncnc32)[C@H](O)[C@@H]1O | 0.007 µM | 0.628 µM | 0.0051 µM | 0.0545 µM | 4.51 µM and 5.68 µM and 0.773 µM and 1.14 µM |
| NCCNC(=O)[C@H]1O[C@@H](n2cnc3c(N)ncnc32)[C@H](O)[C@@H]1O [5'-N-[(2-AMINO)ETHYL CARBOXAMIDO] ADENOSINE] | 0.245 µM | – | – | 15.6 µM | – |
| CNC(=O)[C@H]1O[C@@H](n2cnc3c(NCCN)ncnc32)[C@H](O)[C@@H]1O [Adenosine analog, 5] | 0.775 µM | > 100 µM | 24.6 µM | > 10 µM | > 100 µM |
| NCCCNC(=O)[C@H]1O[C@@H](n2cnc3c(N)ncnc32)[C@H](O)[C@@H]1O [Adenosine analog, 8] | > 100 µM | > 10 µM | > 10 µM | > 10 µM | – |
| NCCCCNC(=O)[C@H]1O[C@@H](n2cnc3c(N)ncnc32)[C@H](O)[C@@H]1O [Adenosine analog, 9] | > 100 µM | > 100 µM | > 10 µM | > 10 µM | > 100 µM and 55.2 µM and 48.1 µM |
| NCCCCCNC(=O)[C@H]1O[C@@H](n2cnc3c(N)ncnc32)[C@H](O)[C@@H]1O [Adenosine analog, 10] | > 100 µM | > 100 µM | > 100 µM | > 10 µM | > 100 µM and 124 µM |
| Nc1ncnc2c1ncn2[C@@H]1O[C@H](C(=O)NCCO)[C@@H](O)[C@H]1O [Adenosine analog, 11] | – | – | – | 0.942 µM | – |
| Cc1ccccc1CNc1ncnc2c1ncn2[C@@H]1O[C@H](C(=O)NN)[C@@H](O)[C@H]1O [Adenosine analog, 12] | > 10 µM | > 10 µM | 0.394 µM | > 100 µM | – |
| CCNC(=O)[C@H]1O[C@@H](n2cnc3c(NCc4ccccc4C)ncnc32)[C@H](O)[C@@H]1O [Adenosine analog, 13] | 0.106 µM | 5.43 µM | 0.0788 µM | > 1 µM | – |
| Cc1ccccc1CNc1ncnc2c1ncn2[C@@H]1O[C@H](C(=O)NCCN)[C@@H](O)[C@H]1O [Adenosine analog, 14] | > 10 µM | 55.9 µM | > 10 µM | > 1 µM | – |
| Cc1ccccc1CNc1ncnc2c1ncn2[C@@H]1O[C@H](C(=O)NCCO)[C@@H](O)[C@H]1O [Adenosine analog, 15] | 0.368 µM | > 10 µM | 1.64 µM | 3.72 µM | – |
| Cc1ccccc1CNc1ncnc2c1ncn2[C@@H]1O[C@H](CO)[C@@H](O)[C@H]1O [Adenosine analog, 16] | 0.0393 µM | 0.764 µM | 0.0472 µM | – | – |
| CNc1nc(N)nc2c1ncn2[C@@H]1O[C@H](CO)[C@@H](O)[C@H]1O [Adenosine analog, 17] | 0.484 µM | > 10 µM | 0.039 µM | > 10 µM | > 100 µM |
| CNc1nc(CN)nc2c1ncn2[C@@H]1O[C@H](CO)[C@@H](O)[C@H]1O [Adenosine analog, 18] | > 10 µM | > 10 µM | 0.719 µM | > 10 µM | > 100 µM |
| CNc1nc(C(=N)N)nc2c1ncn2[C@@H]1O[C@H](CO)[C@@H](O)[C@H]1O [Adenosine analog, 19] | > 10 µM | > 10 µM | 2.73 µM | > 10 µM | > 100 µM |
